Test results from patent publication US7008953B2, “3, 5 Disubstituted indazole compounds, pharmaceutical compositions, and methods for mediating or inhibiting cell proliferation” (Agouron Pharmaceuticals, Inc., priority 2003, dated 2006).

Tests used:
Assay type in all cases: biochemical
lymphocyte kinase (LCK) = lymphocyte kinase (LCK) (Homo sapiens, UniProt P06239); assay: Panel of protein kinases: LCK; details: method of Davies et al.
Experimental: (§1) The compounds of the present invention were screened against a large panel of protein kinase to determine inhibition activity for CDK as against a variety of protein kinases. The assay was conducted using methods and materials described by Davies, S et al. Specificity and Mechanism of Action of Some Commonly Used Protein Kinase Inhibitors, Biochem J. 351, 95–105 (2000), the contents of which are herein incorporated by reference. The compounds were screened against a panel of protein kinases which include AMP-activiated protein kinase (AMPK), checkpoint kinase (CHK1), casein kinases 1 and 2 (CK1 and CK2), cytoplasmic tyrosine kinase (CSK), dual serine/threonine/tyrosine kinase (DYRK1A), glycogen synthase kinase 3 (GSK3B), c-Jun N-terminal kinase (JNK), lymphocyte kinase (LCK), mitogen-activated protein kinases 2, K-1a, K2 (MAPK2, MAPKAP-K1a, and MAPKAP-K2), MAPK kinase (MKK1, also called MEK), mitogen and stress-activated protein kinase 1 (MSK1), never-in-mitosis kinase 6 (NEK6), p70 ribosomal protein S6 kinase (P70s6K1), 3-phosphoinositide-dependent protein kinase 1 (PDK1), phosphorylase kinase (PHK), protein kinase A (PKA), protein kinase B (PKB, also called Akt), protein kinase C (PKCa), p38-regulated/activated kinase (PRAK), Rho-dependent protein kinase (ROCK-II), stress-activated protein kinase 2a, 2b, 3 and 4 (SAPK-2A or p38, SAPK-2b or p38β2, SAPK3 or p38γ, SAPK4 or p38δ, respectively), and serum- and glucocorticoid-induced kinase (SGK). Compound activity was grouped into categories of weak (<50%), moderate (50–75%) and strong inhibition (>75%).

checkpoint kinase (CHK1) = target: T1, checkpoint kinase (CHK1) (Homo sapiens, UniProt O14757); assay: Panel of protein kinases: CHK1; details: method of Davies et al.
T1 sequence (O14757 1-476): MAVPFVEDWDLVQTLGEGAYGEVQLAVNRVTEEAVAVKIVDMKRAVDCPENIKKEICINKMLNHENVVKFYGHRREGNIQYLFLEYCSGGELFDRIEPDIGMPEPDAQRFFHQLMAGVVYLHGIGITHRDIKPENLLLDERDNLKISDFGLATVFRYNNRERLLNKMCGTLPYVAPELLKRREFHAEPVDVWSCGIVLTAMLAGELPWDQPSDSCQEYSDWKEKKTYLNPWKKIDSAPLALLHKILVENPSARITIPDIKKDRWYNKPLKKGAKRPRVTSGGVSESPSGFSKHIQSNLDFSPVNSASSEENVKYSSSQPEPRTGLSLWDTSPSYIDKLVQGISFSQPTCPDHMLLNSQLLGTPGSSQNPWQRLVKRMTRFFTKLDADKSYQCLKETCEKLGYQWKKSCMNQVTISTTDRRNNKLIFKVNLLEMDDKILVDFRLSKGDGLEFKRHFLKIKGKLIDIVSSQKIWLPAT
Experimental: as §1

[1] = target: MAPK kinase (MKK1, also called MEK) (Homo sapiens, UniProt Q02750); assay: Panel of protein kinases: MKK1; details: method of Davies et al.
Sequence of MAPK kinase (MKK1, also called MEK) (Q02750 whole entry): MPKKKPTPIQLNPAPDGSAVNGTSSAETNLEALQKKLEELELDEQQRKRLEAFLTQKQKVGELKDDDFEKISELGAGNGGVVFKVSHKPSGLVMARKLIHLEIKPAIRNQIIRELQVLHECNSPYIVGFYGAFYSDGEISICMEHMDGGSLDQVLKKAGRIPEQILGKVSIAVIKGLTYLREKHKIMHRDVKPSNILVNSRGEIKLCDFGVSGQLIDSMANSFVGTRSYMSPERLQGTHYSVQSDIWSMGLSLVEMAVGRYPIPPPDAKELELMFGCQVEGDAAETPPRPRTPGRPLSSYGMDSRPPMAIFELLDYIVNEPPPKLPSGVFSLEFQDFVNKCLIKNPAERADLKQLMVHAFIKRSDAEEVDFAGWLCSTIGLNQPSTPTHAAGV
Experimental: as §1

CDK2/Cyclin A = target: T2, CDK2/Cyclin A (Homo sapiens, UniProt P24941); assay: Inhibition of CDK2/Cyclin A retinoblastoma kinase activity (apparent Ki); details: Rb fragment substrate, 25 μM ATP
T2 construct: made in house; host or cells: CDK2: insect cells (baculovirus); cyclin A: E. coli
Experimental: Cyclin-dependent kinase activity was measured by quantifying the enzyme-catalyzed, time-dependent incorporation of radioactive phosphate from [^32P]ATP or [^33P]ATP into a protein substrate. Unless noted otherwise, assays were performed in 96-well plates in a total volume of 50 μL, in the presence of 10 mM HEPES (N-[2-hydroxyethyl]piperazine-N′-[2-ethanesulfonic acid]) (pH 7.4), 10 mM MgCl2, 25 μM adenosine triphosphate (ATP), 1 mg/mL ovalbumin, 5 μg/mL leupeptin, 1 mM dithiothreitol, 10 mM beta-glycerophosphate, 0.1 mM sodium vanadate, 1 mM sodium fluoride, 2.5 mM ethylene glycol-bis(β-aminoethyl ethKer)-N,N,N′N′-tetraacetic acid (EGTA), 2% (v/v) dimethylsulfoxide, and 0.03–0.4 μCi [^32/33P]ATP per reaction. Reactions were initiated with enzyme, incubated at 30° C., and terminated after 20 minutes by the addition of ethylenediaminetetraacetic acid (EDTA) to 250 mM. The phosphorylated substrate was then captured on a nitrocellulose or phosphocellulose membrane using a 96-well filtration manifold, and unincorporated radioactivity was removed by repeated washing with 0.85% phosphoric acid. Radioactivity was quantified by exposing the dried membranes to a phosphorimager.
Apparent Ki values were measured by assaying enzyme activity in the presence of different inhibitor compound concentrations and subtracting the background radioactivity measured in the absence of enzyme. Inhibition data were fit to an equation for competitive inhibition using Kaleidagraph (Synergy Software), or were fit to an equation for competitive tight-binding inhibition using the software KineTic (BioKin, Ltd.).
CDK2 was purified using published methodology (Rosenblatt et al., “Purification and Crystallization of Human Cyclin-dependent Kinase 2,” J. Mol. Biol., vol. 230, 1993, pp. 1317–1319) from insect cells that had been infected with a baculovirus expression vector. […] A complex of CDK2 and proteolyzed cyclin A was prepared and purified by gel filtration. The substrate for this assay was the same Rb substrate fragment used for the CDK4 assays, and the methodology of the CDK2/cyclin A and the CDK4/cyclin D3 assays was essentially the same, except that CDK2 was present at 150 nM or 5 nM. Ki values were measured as described above.

MAPKAP-K1a = MAPKAP-K1a (Homo sapiens, UniProt Q15418); assay: Panel of protein kinases: MAPKAP-K1a; details: method of Davies et al.
Sequence of MAPKAP-K1a (Q15418 whole entry, species assumed): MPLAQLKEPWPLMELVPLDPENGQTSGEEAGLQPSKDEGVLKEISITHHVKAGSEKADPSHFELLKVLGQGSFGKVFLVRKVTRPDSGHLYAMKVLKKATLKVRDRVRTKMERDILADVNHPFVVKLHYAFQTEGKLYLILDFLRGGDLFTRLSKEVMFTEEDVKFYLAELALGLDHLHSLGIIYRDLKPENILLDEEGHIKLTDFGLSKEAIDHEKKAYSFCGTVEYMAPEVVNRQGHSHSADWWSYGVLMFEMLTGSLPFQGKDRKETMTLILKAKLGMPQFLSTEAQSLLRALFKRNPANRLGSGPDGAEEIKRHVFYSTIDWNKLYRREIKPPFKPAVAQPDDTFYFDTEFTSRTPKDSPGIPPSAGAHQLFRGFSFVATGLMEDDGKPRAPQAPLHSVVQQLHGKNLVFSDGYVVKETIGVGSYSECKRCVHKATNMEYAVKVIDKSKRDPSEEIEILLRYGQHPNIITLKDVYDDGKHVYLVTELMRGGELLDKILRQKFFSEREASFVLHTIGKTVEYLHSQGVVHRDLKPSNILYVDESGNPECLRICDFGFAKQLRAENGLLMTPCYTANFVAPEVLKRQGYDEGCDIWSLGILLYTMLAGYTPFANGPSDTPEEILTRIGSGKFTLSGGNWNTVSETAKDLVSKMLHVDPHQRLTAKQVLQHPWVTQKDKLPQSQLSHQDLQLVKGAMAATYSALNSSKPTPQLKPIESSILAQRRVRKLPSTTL
Experimental: as §1

[2] = target: mitogen-activated protein kinase 2 (MAPK2) (Homo sapiens, UniProt P28482); assay: Panel of protein kinases: MAPK2; details: method of Davies et al.
Sequence of mitogen-activated protein kinase 2 (MAPK2) (P28482 whole entry): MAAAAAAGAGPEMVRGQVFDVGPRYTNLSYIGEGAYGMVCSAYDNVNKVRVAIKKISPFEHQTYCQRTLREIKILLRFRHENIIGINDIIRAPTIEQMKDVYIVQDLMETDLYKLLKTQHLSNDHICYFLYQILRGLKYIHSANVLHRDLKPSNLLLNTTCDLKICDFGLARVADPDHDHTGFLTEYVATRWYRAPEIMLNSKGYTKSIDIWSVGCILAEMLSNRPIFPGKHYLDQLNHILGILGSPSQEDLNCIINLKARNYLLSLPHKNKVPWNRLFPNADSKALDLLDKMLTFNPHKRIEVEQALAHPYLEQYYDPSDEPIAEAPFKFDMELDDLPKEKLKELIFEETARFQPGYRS
Experimental: as §1

[3] = target: glycogen synthase kinase 3 (GSK3B) (Homo sapiens, UniProt P49841); assay: Panel of protein kinases: GSK3B; details: method of Davies et al.
Sequence of glycogen synthase kinase 3 (GSK3B) (P49841 whole entry, species assumed): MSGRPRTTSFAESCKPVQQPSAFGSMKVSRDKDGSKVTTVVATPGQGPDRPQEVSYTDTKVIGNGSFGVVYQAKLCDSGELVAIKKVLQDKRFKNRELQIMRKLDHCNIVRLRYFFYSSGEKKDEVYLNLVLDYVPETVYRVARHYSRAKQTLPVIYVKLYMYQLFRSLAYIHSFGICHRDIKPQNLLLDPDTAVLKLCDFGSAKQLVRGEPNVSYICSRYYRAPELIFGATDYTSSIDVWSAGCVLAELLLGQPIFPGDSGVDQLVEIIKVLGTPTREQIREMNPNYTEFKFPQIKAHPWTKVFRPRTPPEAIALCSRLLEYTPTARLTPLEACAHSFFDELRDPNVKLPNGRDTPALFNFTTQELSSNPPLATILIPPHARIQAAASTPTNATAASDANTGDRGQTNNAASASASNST
Experimental: as §1

Sequence of lymphocyte kinase (LCK) (P06239 whole entry, species assumed): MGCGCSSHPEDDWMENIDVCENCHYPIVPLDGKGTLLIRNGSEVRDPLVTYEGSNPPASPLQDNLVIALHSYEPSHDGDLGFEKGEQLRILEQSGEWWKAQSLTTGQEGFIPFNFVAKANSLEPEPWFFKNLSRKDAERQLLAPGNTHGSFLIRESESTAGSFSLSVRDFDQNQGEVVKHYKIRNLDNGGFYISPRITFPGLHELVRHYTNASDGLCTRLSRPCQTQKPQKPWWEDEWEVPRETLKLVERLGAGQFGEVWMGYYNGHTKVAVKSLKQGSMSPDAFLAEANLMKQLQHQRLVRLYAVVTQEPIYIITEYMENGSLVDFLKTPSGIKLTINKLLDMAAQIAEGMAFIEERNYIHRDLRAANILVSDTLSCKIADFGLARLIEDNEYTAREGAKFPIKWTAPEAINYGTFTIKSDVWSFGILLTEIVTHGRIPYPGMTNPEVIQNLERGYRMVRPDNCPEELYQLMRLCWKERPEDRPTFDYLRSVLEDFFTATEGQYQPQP

CCNCc1cncc(-c2ccc3[nH]nc(-c4nc5c(SC)cccc5[nH]4)c3c2)c1C [C]
Kinase LCK inhibition (lymphocyte kinase (LCK)): + (Moderate inhibition 50–75%)
Kinase CHK1 inhibition (checkpoint kinase (CHK1)): − (Weak inhibition <50%)
Kinase MKK1 inhibition [1]: + (Moderate inhibition 50–75%)
Ki (CDK2/Cyclin A): 0.8 nM
Kinase MAPKAP-K1a inhibition (MAPKAP-K1a): ++ (Strong inhibition >75%)
Kinase MAPK2 inhibition [2]: − (Weak inhibition <50%)
Kinase GSK3B inhibition [3]: ++ (Strong inhibition >75%)

CCNCc1cncc(-c2ccc3[nH]nc(-c4nc5ccccc5[nH]4)c3c2)c1C [A]
Kinase LCK inhibition (lymphocyte kinase (LCK)): ++ (Strong inhibition >75%)
Kinase CHK1 inhibition (checkpoint kinase (CHK1)): + (Moderate inhibition 50–75%)
Kinase MKK1 inhibition [1]: ++ (Strong inhibition >75%)
Ki (CDK2/Cyclin A): 0.52 nM
Kinase MAPKAP-K1a inhibition (MAPKAP-K1a): ++ (Strong inhibition >75%)
Kinase MAPK2 inhibition [2]: − (Weak inhibition <50%)
Kinase GSK3B inhibition [3]: ++ (Strong inhibition >75%)

CCNCc1cncc(-c2ccc3[nH]nc(-c4nc5c(C(=O)NC)cccc5[nH]4)c3c2)c1C [B]
Kinase LCK inhibition (lymphocyte kinase (LCK)): ++ (Strong inhibition >75%)
Kinase CHK1 inhibition (checkpoint kinase (CHK1)): + (Moderate inhibition 50–75%)
Kinase MKK1 inhibition [1]: + (Moderate inhibition 50–75%)
Ki (CDK2/Cyclin A): 0.25 nM
Kinase MAPKAP-K1a inhibition (MAPKAP-K1a): ++ (Strong inhibition >75%)
Kinase MAPK2 inhibition [2]: − (Weak inhibition <50%)
Kinase GSK3B inhibition [3]: ++ (Strong inhibition >75%)

CCNCc1cncc(-c2ccc3[nH]nc(-c4nc5c(NC(C)=O)cccc5[nH]4)c3c2)c1C [D]
Kinase LCK inhibition (lymphocyte kinase (LCK)): − (Weak inhibition <50%)
Kinase CHK1 inhibition (checkpoint kinase (CHK1)): − (Weak inhibition <50%)
Kinase MKK1 inhibition [1]: + (Moderate inhibition 50–75%)
Ki (CDK2/Cyclin A): 2.4 nM
Kinase MAPKAP-K1a inhibition (MAPKAP-K1a): + (Moderate inhibition 50–75%)
Kinase MAPK2 inhibition [2]: − (Weak inhibition <50%)
Kinase GSK3B inhibition [3]: ++ (Strong inhibition >75%)

CCNCc1cncc(-c2ccc3[nH]nc(-c4nc5cc(F)ccc5[nH]4)c3c2)c1C [Example 2, Ethyl-{5-[3-(5-fluoro-1H-benzoimidazol-2-yl)-1H-indazol-5-yl]-4-methyl-pyridin-3-ylmethyl}-amine]
Kinase LCK inhibition (lymphocyte kinase (LCK)): + (Moderate inhibition 50–75%)
Kinase CHK1 inhibition (checkpoint kinase (CHK1)): − (Weak inhibition <50%)
Kinase MKK1 inhibition [1]: − (Weak inhibition <50%)
Ki (CDK2/Cyclin A): 0.47 nM
Kinase MAPKAP-K1a inhibition (MAPKAP-K1a): − (Weak inhibition <50%)
Kinase MAPK2 inhibition [2]: − (Weak inhibition <50%)
Kinase GSK3B inhibition [3]: ++ (Strong inhibition >75%)

CCNCc1cncc(-c2ccc3[nH]nc(-c4nc5c(F)cc(F)cc5[nH]4)c3c2)c1C [Example 1, {5-[3-(4,6-Difluoro-1H-benzoimidazol-2-yl)-1H-indazol-5-yl]-4-methyl-pyridin-3-ylmethyl}-ethyl-amine]
Kinase LCK inhibition (lymphocyte kinase (LCK)): + (Moderate inhibition 50–75%)
Kinase CHK1 inhibition (checkpoint kinase (CHK1)): − (Weak inhibition <50%)
Kinase MKK1 inhibition [1]: − (Weak inhibition <50%)
Ki (CDK2/Cyclin A): 0.78 nM
Kinase MAPKAP-K1a inhibition (MAPKAP-K1a): ++ (Strong inhibition >75%)
Kinase MAPK2 inhibition [2]: − (Weak inhibition <50%)
Kinase GSK3B inhibition [3]: ++ (Strong inhibition >75%)
